Measured values from patent US6927039B2, “Enzymatic process” (Nanobiodesign Limited, priority 2000, dated 2005).
Where two headings read alike, the source gives them in different places.

How the values were obtained:
cytochrome P450 BM3 [1] = biological target: T1, cytochrome P450 BM3 (Priestia megaterium, UniProt P14779); experiment: Alkali assay of NADP+ production in whole E.coli BL21(DE3) cells expressing P450 BM3 (in vivo assay); details: for R (Remark): substrate or no-interaction with P450 BM3; for Vmax: alkali assay; for Vmax / time at which the plateau of the A360 alkali product curve is reached: NADPH 1.5 mM; for time at which the plateau of the A360 alkali product curve is reached: substrate concentration about 0.8 mM; for substrate concentration above which the linear region of NADPH oxidation was found in the first 25 min: ~0-25 min after NADPH addition
T1 sequence (P14779 1-1049): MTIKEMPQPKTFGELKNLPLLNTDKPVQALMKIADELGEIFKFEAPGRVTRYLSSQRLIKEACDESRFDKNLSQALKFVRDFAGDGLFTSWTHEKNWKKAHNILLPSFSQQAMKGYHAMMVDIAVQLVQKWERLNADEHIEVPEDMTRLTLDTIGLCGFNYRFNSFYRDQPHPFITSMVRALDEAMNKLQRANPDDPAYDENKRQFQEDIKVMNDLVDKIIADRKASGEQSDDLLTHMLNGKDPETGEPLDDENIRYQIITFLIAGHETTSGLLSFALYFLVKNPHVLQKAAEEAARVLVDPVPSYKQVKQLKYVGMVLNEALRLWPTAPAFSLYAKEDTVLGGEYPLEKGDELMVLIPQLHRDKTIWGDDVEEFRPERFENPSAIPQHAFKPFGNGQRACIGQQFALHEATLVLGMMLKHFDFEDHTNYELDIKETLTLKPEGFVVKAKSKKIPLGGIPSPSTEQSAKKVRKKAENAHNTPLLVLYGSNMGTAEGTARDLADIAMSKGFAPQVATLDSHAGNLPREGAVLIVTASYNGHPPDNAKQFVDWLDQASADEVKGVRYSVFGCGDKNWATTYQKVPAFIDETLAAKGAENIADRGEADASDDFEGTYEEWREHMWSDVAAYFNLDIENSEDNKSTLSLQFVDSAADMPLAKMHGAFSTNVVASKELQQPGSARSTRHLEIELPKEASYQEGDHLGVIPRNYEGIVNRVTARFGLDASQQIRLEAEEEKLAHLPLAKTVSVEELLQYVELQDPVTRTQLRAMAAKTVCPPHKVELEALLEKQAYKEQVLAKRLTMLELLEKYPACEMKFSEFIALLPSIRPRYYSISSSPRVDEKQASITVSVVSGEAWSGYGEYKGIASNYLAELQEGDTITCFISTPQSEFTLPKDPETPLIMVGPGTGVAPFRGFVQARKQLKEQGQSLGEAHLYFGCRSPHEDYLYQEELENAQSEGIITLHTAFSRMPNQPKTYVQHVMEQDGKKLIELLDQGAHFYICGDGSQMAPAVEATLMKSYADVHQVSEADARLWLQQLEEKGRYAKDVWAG
Protocol: The hydroxylating activity of whole cells expressing cytochrome P450 BM3 was measured in terms of NADP^+ production. […] The assay has been adapted in a microtitre plate format as follows. A single colony from freshly transformed E.coli BL21(pT7Bm3Z) cells was inoculated into 170 μl LB/ampicillin (120 μg/ml) in a microtitre plate well. Cells were grown to an OD600˜0.8 before being induced with 1 mM IPTG. After incubation at 37° C. for 16 hours after induction, the cells were harvested and washed once with 100 mM potassium phosphate buffer pH 8.0. The cell pellet was stored in the −20° C. freezer before running the alkali test within the next few days. The cell pellet was then resuspended at 1:1.3 dilution in 100 mM potassium phosphate buffer pH 8.0. to give an OD600 of about 0.4, to which the substrate at the desired concentration was added (stock solutions of substrates as described for the binding and catalytic assays). A control consisting of cells in phosphate buffer added with the same amount of potassium carbonate solution or ethanol or N,N-dimethylformamide, without substrate was run for every sample. All samples were incubated at room temperature overnight. NADPH at 1.5 mM was then added to the samples and at 1 h after NADPH addition, an aliquot (typically 70 μl) was transferred in a new microtitre plate to which was added the same volume (typically 70 μl) of 0.3 M HCl, so that the final pH in the mixture is about 2. The aliquots were incubated for at least 10 min at room temperature, to ensure complete destruction of the remaining reduced NADPH. An aliquot (typically 70 μl) was then removed and transferred in a new microtitre plate with 280 μl of 9 M NaOH to yield a solution of a pH of about 14.8. The mixture was immediately mixed thoroughly and placed in the dark. The product was left to develop in dark for at least 2.5 h at room temperature, after which the absorbance at 360 nm or the emission at 455 nm (λex=360 nm) was measured.

cytochrome P450 BM3 [2] = biological target: T1, cytochrome P450 BM3; experiment: Substrate binding by spectral titration of the haem high spin band, purified enzyme (in vitro); set-up: expressed in transfected cells; host or cells: E. coli BL21(DE3) transformed with pT7Bm3Z; species or system Bacillus megaterium
Protocol: Substrate Binding and NADPH Consumption Assays. Substrate binding was followed in a Hewlett-Packard 8452A diode array spectrophotometer, equipped with a Hewlett-Packard peltier temperature controller 89090 by monitoring the increase in the high spin band of the haem at 390 nm, upon titration with different substrates. The dissociation constant Kd was calculated by fitting the obtained data to the equation [ES]=((ΔA390-ΔA421)max·[S]free)/(Kd+[S]free) where [ES]=(ΔA390-ΔA421)/(ΔA392-ΔA421)max·[P450 BM3] and [S]free=[S]added−[ES].
(§1) NADPH consumption was followed at 340 nm using a Δε340=6.22 mM^−1·cm^−1. Both assays were performed at 20° C. using P450 BM3 in 100 mM potassium phosphate buffer, pH 8.0. Reaction was initiated by addition to the substrate bound enzyme of NADPH to a final concentration of 130-150 μM. In the kinetics assay the rate constant kcat was calculated from the linear part of the decrease in A340 with time, which lasted at least for the first 4 sec. The enzyme concentration typically varied between 0.4 and 0.8 μM in the binding assay and between 8 and 25 nM in the catalytic assay. Substrate stock solutions were freshly prepared the day of the assay. Fatty acid stock solutions were in 50 mM potassium carbonate, SDS was easily dissolved in water, while TCE stock solutions were prepared in ethanol. If appropriate, stocks of candidate agents may be prepared in, for example, N,N-dimethylformamide just before the assay. […] The confidence interval for Kd given in the results section is the mean±the standard deviation of at least four measurements, as calculated using the software Kaleidagraph. Similarly kcat was calculated by fitting data points to the Michaelis-Menten equation. Each data point is the mean of at least four measurements.

E.coli BL21(DE3) cells = experiment: Toxicity of substrate to the whole cells used in the assay; type: cell-based
Protocol: When the initial rate of AA, LA, and SDS oxidation was plotted against substrate concentration a Michaelis-Menten-type curve was obtained as shown in FIG. 6. […] The kinetic parameters determined following the substrate-dependent NADPH oxidation with time in the whole-cell assay are given in Table 1. For all the three substrates the extent of uncoupling of P450 BM3 from substrate hydroxylation was also determined in a whole-cell assay. This was essentially an adaptation of the hydrogen peroxide quantification method of HRP with ABTS described for the experiments carried out on purified enzyme.
The potential lethal effect that high concentrations of substrate may have on whole cells (as in the case of arachidonic acid at concentrations higher than 170 μM, FIG. 7A.) can be overcome without loss of sensitivity by successive small additions of substrate. The increase of the A360 signal with subsequent additions of SDS to whole cells expressing P450 BM3 is reported in FIG. 8, where it can be observed how the increase in the absorbance becomes limited by the NADPH concentration. At 1.5 h after NADPH addition, when SDS is supplied periodically to the cells an increase of about 45% in the NADP^+ production is seen, which should correspond to a ratio of sample A360 signal/blank signal of about 30. […]

cytochrome P450 BM3 [3] = biological target: T1, cytochrome P450 BM3; experiment: Hydrogen peroxide determination (uncoupling) by HRP/ABTS assay, purified enzyme; type: biochemical, Bacillus megaterium; set-up: expressed in transfected cells; host or cells: E. coli BL21(DE3) transformed with pT7Bm3Z; details: 150 μM NADPH
Protocol: Hydrogen Peroxide Determination. Uncoupled reactions were determined by measuring the production of hydrogen peroxide during substrate turnover using the horseradish peroxidase (HRP)/2′2-Azino-di(3-ethyl-benzathiazoline-6-sulphonic acid) (ABTS) assay as described by Childs and Bardsley (31). The extinction coefficient at 414 nm of the radical cation of ABTS was calculated to 32.95 mM^−1 cm^−1, in accordance with the published value. The assay mixture composition was essentially similar to that utilised during the substrate-dependent NADPH consumption assay (20-30 nM P450 BM3 in 100 mM potassium phosphate buffer pH 8.0, 150 μM NADPH, and at least 1.7 times higher substrate concentration relative to NADPH concentration). When all NADPH was consumed (as judged from the disappearance of the 340 nm peak) the hydrogen peroxide produced was measured. Uncoupling in whole cells was measured following essentially the same assay in whole cells in 100 mM potassium phosphate buffer pH 8.0 incubated with substrate and NADPH as in the alkali method.

cytochrome P450 BM3 [4] = biological target: T1, cytochrome P450 BM3; experiment: Substrate-dependent NADPH consumption assay at 340 nm, purified enzyme (in vitro); type: biochemical, Bacillus megaterium; set-up: expressed in transfected cells; host or cells: E. coli BL21(DE3) transformed with pT7Bm3Z; details: NADPH 130-150 μM, 20° C., pH 8.0
Protocol: as §1

[5] = 20° C., 100 mM potassium phosphate buffer pH 8.0, read-out: Kd

SMILES: CCCCC/C=C\C/C=C\C/C=C\C/C=C\CCCC(=O)O [AA, arachidonic acid]
- R (Remark) (cytochrome P450 BM3 [1]): S
- Kd (cytochrome P450 BM3 [2]; printed as an order-of-magnitude range in M, read-out: Kd): ~0.1 µM
- toxicity to E.coli BL21(DE3) cells (E.coli BL21(DE3) cells): relatively high toxicity
- concentration above which the substrate has a lethal effect on whole cells (E.coli BL21(DE3) cells; E.coli BL21(DE3) cells expressing P450 BM3): higher than 170 μM
- % H2O2 (cytochrome P450 BM3 [3]): 0.11%

SMILES: CCCCCCCCCCCC(=O)O [LA, lauric acid]
- R (Remark) (cytochrome P450 BM3 [1]): S
- Vmax (cytochrome P450 BM3 [1]; whole cells): 10.26 ± 0.87 nM NADP^+/min
- time at which the plateau of the A360 alkali product curve is reached (cytochrome P450 BM3 [1]; whole cells): 7 h
- substrate concentration above which the linear region of NADPH oxidation was found in the first 25 min (cytochrome P450 BM3 [1]; whole cells): higher than 200 μM
- Kd (cytochrome P450 BM3 [2]; [5]): 135 ± 38.2 µM
- % H2O2 (cytochrome P450 BM3 [3]): 0.66%

SMILES: CCCCCCCCCCCCOS(=O)(=O)[O-].[Na+] [SDS, sodium dodecyl sulphate]
- R (Remark) (cytochrome P450 BM3 [1]): S
- ratio of sample A360 signal/blank signal (cytochrome P450 BM3 [1]; whole cells, SDS supplied periodically, 1.5 h after NADPH addition): about 30
- Vmax (cytochrome P450 BM3 [1]; whole cells): 18.19 ± 1.12 nM NADP^+/min
- time at which the plateau of the A360 alkali product curve is reached (cytochrome P450 BM3 [1]; whole cells): 3.5 h
- substrate concentration above which the linear region of NADPH oxidation was found in the first 25 min (cytochrome P450 BM3 [1]; whole cells): higher than 300 μM
- Kd (cytochrome P450 BM3 [2]; [5]): 11.5 ± 3.7 µM
- % H2O2 (cytochrome P450 BM3 [3]): 0.63%

SMILES: ClC(Cl)C(Cl)Cl [TCE, 1,1,2,2-tetrachloroethane]
- R (Remark) (cytochrome P450 BM3 [1]): S
- Kd (cytochrome P450 BM3 [2]; [5]): 4010 ± 830 µM
- % H2O2 (cytochrome P450 BM3 [3]): 0%

SMILES: CCCCCC [n-hexane]
- R (Remark) (cytochrome P450 BM3 [1]): N
- KM (cytochrome P450 BM3 [4]): n.o.
- kcat (cytochrome P450 BM3 [4]): n.o.
- Kd (cytochrome P450 BM3 [2]; 20° C., 100 mM potassium phosphate buffer pH 8.0): n.o.
